Experimental findings from article PMC9181926, “Synthesis and Antiproliferative Activity of Novel Dehydroabietic Acid-Chalcone Hybrids” (Molecules, 2022) are described below.

What all share (assay type): cell-based, human
One test relates to MDA-MB-231 cells. Description: Antiproliferation assay (cell counting, 48 h) in MDA-MB-231 breast cancer cells. To be noted: MDA-MB-231 cells, 48 h incubation, cell counting. The source says: (§1) Regarding the different characteristics of the used breast cancer cell lines, we can notice that MDA-MB-231 and Hs578T are triple negative.
(§2) Primary skin normal fibroblasts were kindly provided by Prof. Emer.

The subject of the next test is MCF-7 cells. The test is described as follows: Antiproliferation assay (cell counting, 48 h) in MCF-7 breast cancer cells. To be noted: MCF-7 cells, 48 h incubation, cell counting.
Description: as §1, §2

A further test concerns Hs578T cells. The test is described as follows: Antiproliferation assay (cell counting, 48 h) in Hs578T breast cancer cells. Conditions: Hs578T cells, 48 h incubation, cell counting.
Description: as §1, §2

“Tert-butyl 4-(4-((E)-3-((4bS,8R)-3-methoxy-8-(methoxycarbonyl)-4b,8-dimethyl-4b,5, 6,7,8,8a,9,10-octahydrophenanthren-2-yl)acryloyl)phenyl)piperazine-1-carboxylate [Compound 48]”: the IC50 with MDA-MB-231 cells is above 75 µM; in the test on MCF-7 cells, 25.62 ± 0.09 µM; with Hs578T cells, 23.2 ± 2.5 µM.

Regarding “(E)-1-((4bS,8R)-3-hydroxy-8-methoxy-4b,8-dimethyl-4b,5,6,7,8,8a,9,10-octahydrophenanthren-2-yl)-3-(pyridin-2-yl)prop-2-en-1-one [Compound 34]”, the values for the concentration for half-maximal inhibition (IC50) with MDA-MB-231 cells, with MCF-7 cells and in the test with Hs578T cells were above 75 µM, 21.4 ± 0.6 µM and 28.1 ± 7.76 µM, respectively.

On to `COC(=O)[C@]1(C)CCC[C@]2(C)c3cc(O)c(C(=O)/C=C/c4ccc(Br)s4)cc3CCC12` (stereo partly drawn) [Compound 45, (1R,4aS)-methyl 7-((E)-3-(5-bromothiophen-2-yl)acryloyl)-6-hydroxy-1,4a-dimethyl-1,2,3,4,4a,9,10,10a-octahydrophenanthrene-1-carboxylate], for which the IC50 is above 75 µM with MDA-MB-231 cells (Homo sapiens); 29.9 ± 5.26 µM in the test on MCF-7 cells (Homo sapiens, MCF7); above 75 µM in the test with Hs578T cells (Homo sapiens, Hs-578T).

With `COC(=O)[C@]1(C)CCC[C@]2(C)c3cc(OC)c(C(=O)/C=C/c4cccnc4)cc3CCC12` (stereo partly drawn) [Compound 32, (1R,4aS)-methyl 6-methoxy-1,4a-dimethyl-7-((E)-3-(pyridin-3-yl)acryloyl)-1,2,3,4,4a, 9,10,10a-octahydrophenanthrene-1-carboxylate], the IC50 in the test with MDA-MB-231 cells (Homo sapiens) is above 75 µM; in the test on MCF-7 cells (Homo sapiens, MCF7), above 75 µM; in the test on Hs578T cells (Homo sapiens, Hs-578T), above 75 µM.

On to `COC(=O)[C@]1(C)CCC[C@]2(C)c3cc(O)c(C(=O)/C=C/c4csc5ccccc45)cc3CCC12` (stereo partly drawn) [Compound 47, (1R,4aS)-methyl 7-((E)-3-(benzo[b]thiophen-3-yl)acryloyl)-6-hydroxy-1,4a-dimethyl-1,2,3,4,4a,9,10,10a-octahydrophenanthrene-1-carboxylate], for which the half-inhibitory concentration (IC50) with MDA-MB-231 cells (Homo sapiens) was 40.4 ± 0.67 µM; with MCF-7 cells (Homo sapiens, MCF7), 12.5 ± 8.43 µM; with Hs578T cells (Homo sapiens, Hs-578T) it was above 75 µM.

Regarding `COC(=O)[C@]1(C)CCC[C@]2(C)c3cc(O)c(C(C)=O)cc3CCC12` (stereo partly drawn) [Compound 28], the half-inhibitory concentration (IC50) in the test on MDA-MB-231 cells (Homo sapiens) turned out to be 115 ± 40.1 µM; with MCF-7 cells (Homo sapiens, MCF7), 207 ± 7.28 µM; in the test on Hs578T cells (Homo sapiens, Hs-578T), 136 ± 2.47 µM.

“(1R,4aS)-6-hydroxy-1,4a-dimethyl-7-((E)-3-(naphthalen-2-yl)acryloyl)-1,2,3,4,4a,9,10, 10a-octahydrophenanthrene-1-carboxylic acid [Compound 37]”: the concentration for half-maximal inhibition (IC50) in the test with MDA-MB-231 cells is above 75 µM; in the test on MCF-7 cells, 11.4 ± 1.55 µM; with Hs578T cells, above 75 µM.

On to `COC(=O)[C@]1(C)CCC[C@]2(C)c3cc(O)c(/C=C/C(=O)c4ccc(Br)s4)cc3CCC12` (stereo partly drawn) [Compound 53, (1R,4aS)-methyl 7-((E)-3-(5-bromothiophen-2-yl)-3-oxoprop-1-en-1-yl)-6-hydroxy-1,4a-dimthyl-1,2,3,4,4a,9,10,10a-octahydrophenanthrene-1-carboxylate], for which the IC50 stood at 17.1 ± 0.41 µM with MDA-MB-231 cells (Homo sapiens); 41.4 ± 1.74 µM in the test with MCF-7 cells (Homo sapiens, MCF7); 28.4 ± 1.97 µM in the test with Hs578T cells (Homo sapiens, Hs-578T).

For “(E)-3-(furan-2-yl)-1-((4bS,8R)-3-hydroxy-8-methoxy-4b,8-dimethyl-4b,5,6,7,8,8a,9,10-octahydrophenanthren-2-yl)prop-2-en-1-one [Compound 42]”, the concentration for half-maximal inhibition (IC50) in the test with MDA-MB-231 cells is above 75 µM; in the test with MCF-7 cells it was 37 ± 6.89 µM; with Hs578T cells it was 43.3 ± 4.32 µM.

As to “(1R,4aS)-methyl 7-((E)-3-(benzofuran-2-yl)acryloyl)-6-hydroxy-1,4a-dimethyl-1,2,3, 4,4a,9,10, 10a-octahydrophenanthrene-1-carboxylate [Compound 52]”, the IC50 in the test on MDA-MB-231 cells is above 75 µM; in the test with MCF-7 cells, above 75 µM; with Hs578T cells, 60.2 ± 6.94 µM.

Turning to `COC(=O)[C@]1(C)CCC[C@]2(C)c3cc(O)c(C(=O)/C=C/c4c[nH]c5ccccc45)cc3CCC12` (stereo partly drawn) [Compound 46, (1R,4aS)-methyl 7-((E)-3-(1H-indol-3-yl)acryloyl)-6-hydroxy-1,4a-dimethyl-1,2,3,4,4a,9,10,10a-octahydrophenanthrene-1-carboxylate], the IC50 in the test on MDA-MB-231 cells (Homo sapiens) was above 75 µM; in the test on MCF-7 cells (Homo sapiens, MCF7) it was above 75 µM; in the test on Hs578T cells (Homo sapiens, Hs-578T), above 75 µM.

As usually defined, the IC50 is the point on the concentration scale where inhibition reaches its midpoint. Read a low IC50 as greater potency in that assay.
